Measurements taken from publication PMC5817083, “Oligopeptide Targeting Sortase A as Potential Anti-infective Therapy for Staphylococcus aureus” (Frontiers in Microbiology, 2018).
“Also recorded” adds a separate entry of the source. Marks after values point to notes of the source that are not given here.

How the values were obtained:
SrtAR197A [1] = molecular target: T1, SrtAR197A (Staphylococcus aureus, UniProt Q2FV99, R197A); assay: SrtA activity inhibition assay, mutant SrtAR197A; format: biochemical; conditions: Figure 5C
T1 construct: GST (cleaved yes); made in house; host or cells: Escherichia coli BL21 (DE3)
Procedure: (§1) The procedures followed for expression and purification of the mutant proteins (SrtAN114A, SrtAC184A, and SrtAR197A) were identical to those followed for the wild-type protein (SrtAΔN59).
(§2) Site-directed mutagenesis for SrtAN114A, SrtAC184A, and SrtAR197A was conducted using a recombinant vector encoding SrtAΔN59 with a QuickChange Site-Directed Mutagenesis Kit (Stratagene, La Jolla, CA, United States). The primer pairs for these three mutations were as follows: N114A forward, 5′-[…]-3′; N114A reverse, 5′-[…]-3′; C184A forward, 5′-[…]-3′; C184A reverse, 5′-[…]-3′; R197A forward, 5′-[…]-3′; and R197A reverse, 5′-[…]-3′.
(§3) The inhibitory effect of the oligopeptide against SrtA and its mutants activity was determined as previously described in 96-well black plates (PerkinElmer, Boston, MA, United States) ([Wang et al., 2015c]). Briefly, 100 μL of purified SrtA ([…]) was preincubated with 100 μL of increasing concentrations of the oligopeptide (3.125–25 μM) in reaction buffer at 37°C for 20 min. The model fluorescent peptide substrate Dabcyl-[…]-Edans (GL Biochem, Shanghai, China) (final concentration of 10 μM) was added to the reaction system, followed by incubation at 37°C for 1 h. Fluorescence intensity was measured at […] wavelengths of 350 and 520 nm, respectively. The experiments were repeated three times independently for each sample.

SrtAWT = molecular target: T2, SrtAWT (Staphylococcus aureus, UniProt Q2FV99); assay: Fluorescence spectroscopy quenching binding constant, SrtAWT
T2 construct: GST (cleaved yes); made in house; host or cells: Escherichia coli BL21 (DE3)
Excerpt: (§4) In this study, the fluorescence quenching method was used to measure the binding constants (KA) of ligands to proteins. A 280-nm excitation wavelength with 5-nm band pass and a 345-nm emission wavelength with 10-nm band pass were used for the measurements. Details of the measurement procedures have been described previously ([Bandyopadhyay et al., 2002]; [Jurasekova et al., 2009]).

SrtAC184A [2] = molecular target: T3, SrtAC184A (Staphylococcus aureus, UniProt Q2FV99, C184A); assay: Fluorescence spectroscopy quenching binding constant, SrtAC184A
T3 construct: GST (cleaved yes); made in house; host or cells: Escherichia coli BL21 (DE3)
Excerpt: as §4

MRSA strain USA 300 = assay: Broth microdilution MIC; format: cell-based, Staphylococcus aureus; conditions: for anti-S. aureus (bacteriostatic) activity: at concentrations that inhibit SrtA activity
Procedure: (§5) The broth microdilution method was used to determine the minimum inhibitory concentration (MIC) of the oligopeptide against the MRSA strain USA 300 according to the NCCLS guideline M31-A2. For the growth curve experiment, an overnight bacterial culture was inoculated in fresh TSB (1:100) with the indicated concentrations of the oligopeptide, and the optical density (OD) at 600 nm was measured for each sample at 1-h intervals.

[3] = system: S. aureus USA 300 adherence to bovine fibronectin; assay: Fibronectin-binding assay; format: cell-based, Staphylococcus aureus; conditions: USA 300 treated with oligopeptide, crystal violet OD570 nm
Procedure: Ninety-six-well flat-bottom polystyrene plates were coated with 100 μL of 2 μg/mL fibronectin in PBS (fibronectin from bovine plasma; Sigma–Aldrich, St. Louis, MO, United States) per well and incubated at 4°C overnight. Each well was washed three times with PBS and blocked with 5% BSA in PBS at 37°C for 2 h. An overnight bacterial culture was inoculated in fresh TSB (1:100, OD600 nm ≈ 0.2) with the indicated concentrations of the oligopeptide and incubated until the OD600 nm reached 0.5. Then, the cells were centrifuged at 5000 × g for 10 min and resuspended in PBS to an OD600 nm of 1.0. One hundred microliters of bacterial suspension were added to each fibronectin-coated plate well as described above, and the plates were incubated at 37°C for 2 h. After removal of the cell suspension, 25% (v/v) formaldehyde was added to fix S. aureus. Then, the bacteria attached to fibronectin were stained with 100 μL of 0.4% crystal violet dye for 20 min at 37°C after being washed once with PBS. Following removal of the supernatant, adherence was quantified by measuring the OD570 nm for each well. USA 300 without the oligopeptide was used as a positive control, and PBS was used as a negative control.

SrtAR197A [4] = molecular target: T1, SrtAR197A; assay: Fluorescence spectroscopy quenching binding constant, SrtAR197A
Excerpt: as §4

SrtAN114A [5] = molecular target: T4, SrtAN114A (Staphylococcus aureus, UniProt Q2FV99, N114A); assay: SrtA activity inhibition assay, mutant SrtAN114A; format: biochemical; conditions: Figure 5C
T4 construct: GST (cleaved yes); made in house; host or cells: Escherichia coli BL21 (DE3)
Procedure: as §1, §2, §3

[6] = system: S. aureus invasion into J774 cells; assay: Invasion assay in J774 cells; format: cell-based, Staphylococcus aureus; conditions: 25 μM oligopeptide, infection 1 h, CFU of lysed cells
Procedure: J774 cells were adjusted to 4 × 10^5 per glass slide in 24-well plates in Dulbecco’s […] essential medium (DMEM) supplemented with 10% fetal bovine serum (FBS) and cultured in an incubator at 5% CO2 and 37°C overnight. An overnight bacterial culture was inoculated in fresh TSB (1:100, OD600 nm ≈ 0.2) with the indicated concentrations of the oligopeptide and incubated until the OD600 nm reached 1.0. Then, the bacteria were resuspended in DMEM containing 10% FBS at a concentration of 1 × 10^8 CFU/mL, and 1 mL of the resuspension was added to each well for infection at 37°C for 1 h. Invasion was terminated by incubation with 300 μg/mL gentamicin for 30 min. After three washes with PBS, coverslips were placed in 0.2% Triton X-100 with vigorous vortexing, and the diluted lysates were plated onto TSB agar plates to enumerate the number of bacteria associated with each sample.

SrtAC184A [7] = molecular target: T3, SrtAC184A; assay: SrtA activity inhibition assay, mutant SrtAC184A; format: biochemical; conditions: Figure 5C
Procedure: as §1, §2, §3

[8] = system: S. aureus-induced mastitis; assay: Mouse mastitis model of S. aureus infection; format: in vivo, BALB/c mice; conditions: for protection against S. aureus-induced mastitis: mouse model
Procedure: BALB/c mice (from the Experimental Animal Center of Jilin University) were obtained and housed under specific pathogen-free conditions. All animal studies were approved by and conducted in accordance with the guidelines of the Animal Welfare and Research Ethics Committee of Jilin University. An overnight bacterial culture was inoculated in fresh TSB broth (1:100, OD600 nm ≈ 0.2) and incubated until the OD600 nm reached 0.8. Cells were harvested by centrifugation at 3,000 × g for 10 min, washed three times with PBS, and resuspended in PBS to a concentration of 1 × 10^9 CFU/mL for the mastitis infection experiment.
For establishment of a mastitis model of infection, lactating BALB/c mice, 10–12 weeks of age and weighing 30–32 g, were anesthetized using sodium pentobarbital and infected by injecting the canal glands with 50 μL of staphylococcal suspension per breast. The infected mice were administered 50 mg/kg of the oligopeptide subcutaneously at the time of infection and then at 12-h intervals. The control mice received an equal volume of PBS at the same time points. To evaluate the pathological correlates of mastitis, mammary gland tissues isolated from sacrificed mice at 48 h post-infection were fixed in 4% paraformaldehyde, stained with hematoxylin and eosin, and visualized by light microscopy. Furthermore, additional mammary gland tissues from the mice sacrificed at 48 h post-infection were homogenized in PBS containing 2% Triton X-100, after which they were appropriately diluted and inoculated onto TSB agar plates for assessment of the bacterial burden. The levels of the inflammatory cytokines IL-1β, IL-6, and TNF-α in the supernatants were measured using ELISA kits.

[9] = system: surface protein A display on S. aureus; assay: Immunofluorescence assay of surface protein A; format: cell-based, Staphylococcus aureus; conditions: S. aureus cultured with oligopeptide 37°C 2.5 h, confocal microscopy
Procedure: Detection of surface protein A by immunofluorescence analysis was performed as described previously ([Chen et al., 2014]). Briefly, S. aureus were cultured in TSB with or without the oligopeptide at 37°C for 2.5 h, pelleted by centrifugation (3,000 × g, 10 min), washed three times with PBS, blocked with 2% BSA for 1 h at 37°C, stained with fluorescein isothiocyanate (FITC)-labeled goat anti-rabbit IgG for 2 h at 37°C, and observed under a laser scanning confocal microscope (Olympus, Tokyo, Japan).

S. aureus USA 300 = assay: Growth curve experiment (OD 600 nm); format: cell-based, Staphylococcus aureus; conditions: USA 300 in TSB, oligopeptide 3.125–25 μM
Procedure: as §5

SrtAN114A [10] = molecular target: T4, SrtAN114A; assay: Fluorescence spectroscopy quenching binding constant, SrtAN114A
Excerpt: as §4

SrtA (SrtAΔN59) = molecular target: T5, SrtA (SrtAΔN59) (Staphylococcus aureus, UniProt Q2FV99); assay: SrtA activity inhibition assay (fluorescent substrate Dabcyl-[…]-Edans); format: biochemical; conditions: purified SrtA preincubated with oligopeptide 3.125–25 μM, 37°C 20 min; substrate 10 μM, 1 h
T5 construct: GST (cleaved yes); made in house; host or cells: Escherichia coli BL21 (DE3)
Procedure: An Escherichia coli BL21 (DE3) strain harboring a recombinant vector encoding SrtA∆N59 was used, as described previously ([Wang et al., 2015c]). Cells were cultured overnight at 16°C with 1 mM isopropyl-β-D-thiogalactopyranoside (IPTG, Invitrogen, Carlsbad, CA, United States) in TSB containing ampicillin to induce SrtA expression until the OD600 reached 0.6 ∼ 0.8. Then, the cells were harvested by centrifugation at 5,500 × g for 10 min, resuspended in reaction buffer (50 mM Tris-HCl, 5 mM CaCl2, and 150 mM NaCl, pH 7.5) and lysed by sonication. […] The bound GST-tagged proteins were incubated with Precision Protease at 4°C overnight prior to elution with reaction buffer. Purified SrtA proteins were concentrated to […] via centrifugal filtration (Millipore, Bedford, MA, United States) and subsequently analyzed by SDS-PAGE.
The inhibitory effect of the oligopeptide against SrtA and its mutants activity was determined as previously described in 96-well black plates (PerkinElmer, Boston, MA, United States) ([Wang et al., 2015c]). Briefly, 100 μL of purified SrtA ([…]) was preincubated with 100 μL of increasing concentrations of the oligopeptide (3.125–25 μM) in reaction buffer at 37°C for 20 min. […] Fluorescence intensity was measured at […] wavelengths of 350 and 520 nm, respectively. […]

## LPRDA
SrtAR197A [1]
  sensitivity of SrtAR197A to oligopeptide-induced inhibition compared to wild-type SrtA: significantly decreased
SrtAWT
  binding constant KA: 6.6 ± 1.3 (1 × 10^4) L⋅mol^-1
SrtAC184A [2]
  binding constant KA: 5.1 ± 1.2 (1 × 10^4) L⋅mol^-1
MRSA strain USA 300; MRSA USA 300, broth microdilution
  MIC: greater than 200 μM
MRSA strain USA 300
  anti-S. aureus (bacteriostatic) activity: without anti-S. aureus activity
MRSA strain USA 300; listed as oligopeptide
  anti-S. aureus (bacteriostatic) activity: no anti-Staphylococcus aureus activity; also recorded: no bacteriostatic activity
[3]
  adherence to fibronectin: decreased adherence
SrtAR197A [4]
  binding constant KA: 5.0 ± 1.4 (1 × 10^4) L⋅mol^-1
SrtAN114A [5]
  sensitivity of SrtAN114A to oligopeptide-induced inhibition compared to wild-type SrtA: significantly decreased
[6]
  invasion of S. aureus into J774 cells: significant anti-invasive activity
SrtAC184A [7]
  sensitivity of SrtAC184A to oligopeptide-induced inhibition compared to wild-type SrtA: significantly decreased
[8]; lactating BALB/c mice, 50 mg/kg at infection then 12-h intervals, 48 h post-infection, vs PBS, listed as oligopeptide, 50 mg/kg
  inflammatory responses and pathological changes of mammary gland tissues: effectively alleviated; also recorded: Significant alleviation; also recorded: remarkably alleviated
[8]; lactating BALB/c mice, 50 mg/kg, 48 h post-infection, ELISA
  levels of cytokines IL-1β, IL-6 and TNF-α in mammary gland tissues: significantly reduced
[8]; lactating BALB/c mice, 50 mg/kg, 48 h post-infection, vs PBS-treated control
  bacterial burden in mammary gland tissues: significant decrease
[8]
  protection against S. aureus-induced mastitis: conferred effective protection
[8]; listed as oligopeptide
  protection against S. aureus-induced mastitis: provided protection
[9]
  display (anchoring) of surface protein A, binding of FITC-conjugated IgG: significantly hindered the binding of FITC-conjugated IgG; also recorded: decreased
S. aureus USA 300
  growth of S. aureus: not visibly affected
SrtAN114A [10]
  binding constant KA: 4.2 ± 1.1 (1 × 10^4) L⋅mol^-1

## LPRDA (PEG2000-LPRDA-NH2)
SrtA (SrtAΔN59)
  IC50: 10.6 µM
